Measured values published in patent publication US9409952B2, “Peptide-compound cyclization method” (Chugai Seiyaku Kabushiki Kaisha, priority 2011, dated 2016).
Read-outs that look alike come from different tables or passages of the source. Starred links: 1 amine or outer side, 2 acyl side, 3 side chain; linkers in the order of their positions; H or OH if unused. Positions of bridges follow the written chain, without caps; N, C: chain ends. Non-standard residues stand in square brackets, D forms with d. Residues, ends and D or L forms follow the SMILES beside them. *: point of attachment. NMeF = CN[C@@H](Cc1ccccc1)C(=O)O; NMeGABA = CN(CCCC(=O)[*:2])[*:1]; NMeI = CC[C@H](C)[C@H](NC)C(=O)O; NMeβAla = CN(CCC(=O)[*:2])[*:1]; NMeL = CN[C@@H](CC(C)C)C(=O)O; NMeV = CN[C@H](C(=O)O)C(C)C; NMeA = CN[C@@H](C)C(=O)O; Piperidide = C1CCN(*)CC1; dNMeA = CN[C@H](C)C(=O)O; Sar = CNCC(=O)O; tBu = CC(C)(C)*

Assays:
[1] = PAMPA (parallel artificial membrane permeability assay); format: in vitro ADME; details: PAMPA
Summary of the method: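 Artificial membrane was 10% (w/v) egg lecithin plus 0.5% (w/v) cholesterol in dodecane on a PVDF filter. A 10 mM DMSO stock was added at 0.5% (v/v) to donor buffer (50 mM MOPSO, pH 6.5, 5.0% glycocholic acid). After 18 h at 37 °C, LC/MS or LC/UV gave donor and acceptor levels for Pe.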

[2] = Metabolic stability in human hepatic microsome; format: in vitro ADME
[3] = membrane permeation rate (Pe), 50 mM MOPSO buffer pH 6.5 with 5.0% glycocholic acid, 37° C., 18 hours, read-out: iPAMPA Pe
[4] = microsomes, pH 7.4, human hepatic microsome, NADPH(+), read-out: CL NADPH(+)
[5] = human, microsomes, pH 7.4, CL NADPH(+)

Row | SMILES | Papp at 18 hours, 50 µM [1, 3] [×10⁻⁶ cm/s] | microsomal CLint at 1 uM ([2]; human, liver microsomes, pH 7.4, human hepatic microsome, NADPH(+), read-out: CL NADPH(+)) [µL/min/mg] | microsomal CLint at 1 uM [2, 4] [µL/min/mg] | Papp at 18 hours, 50 µM ([1]; pH 6.5) [×10⁻⁶ cm/s] | microsomal CLint at 1 uM [2, 5] [µL/min/mg]
1 | CC[C@H](C)[C@H]1C(=O)N[C@@H](CC(C)C)C(=O)N(C)[C@@H](C)C(=O)N(C)[C@@H](Cc2ccccc2)C(=O)NCC(=O)N[C@@H]([C@@H](C)O)C(=O)N[C@@H](Cc2ccccc2)C(=O)N(C)[C@@H](CC(C)C)C(=O)N2CCC[C@H]2C(=O)N[C@H](C(=O)N2CCCCC2)CC(=O)N[C@H](C(C)C)C(=O)N[C@@H](CC(C)C)C(=O)N1C [DP-218] ([dV]L[NMeI]L[NMeA][NMeF]GTF[NMeL]PD-Piperidide; lactam N-12) | 33 | 18 | – | – | –
2 | CC[C@H](C)[C@H]1C(=O)N[C@@H](C)C(=O)N(C)[C@@H](CC(C)C)C(=O)N[C@@H]([C@@H](C)O)C(=O)N[C@@H](Cc2ccccc2)C(=O)N(C)[C@@H](Cc2ccccc2)C(=O)N(C)[C@@H](CC(C)C)C(=O)N[C@@H](COC(C)(C)C)C(=O)N(C)[C@@H](CC(C)C)C(=O)N(C)[C@@H](C)C(=O)N[C@H](C(=O)N2CCCCC2)CC(=O)N[C@H](C(C)C)C(=O)N1C [DP-219] ([dV][NMeI]A[NMeL]TF[NMeF][NMeL]S(tBu)[NMeL][NMeA]D-Piperidide; lactam N-12) | 1.3 | – | 49 | – | –
3 | CC[C@H](C)[C@H]1C(=O)NCC(=O)N(C)[C@@H](CC(C)C)C(=O)N[C@@H](CC(C)C)C(=O)N[C@H](C(=O)N2CCCCC2)CC(=O)N(C)[C@@H](C)C(=O)N[C@@H](CC(C)C)C(=O)N(C)[C@@H](C)C(=O)N[C@@H]([C@@H](C)O)C(=O)N2CCC[C@H]2C(=O)N(C)[C@@H](Cc2ccccc2)C(=O)N[C@@H](Cc2ccccc2)C(=O)N1C [DP-220] ([NMeA]L[NMeA]TP[NMeF]F[NMeI]G[NMeL]LD-Piperidide; lactam N-12) | – | – | – | 33 | 26
4 | CC[C@H](C)[C@H]1C(=O)N[C@@H](Cc2ccccc2)C(=O)N[C@H](C(=O)N2CCCCC2)CC(=O)N(C)CCC(=O)N(C)[C@@H](C(C)C)C(=O)N[C@@H](Cc2ccccc2)C(=O)N[C@@H](CC(C)C)C(=O)N(C)[C@@H](C)C(=O)N[C@@H]([C@@H](C)O)C(=O)N[C@@H](CC(C)C)C(=O)N(C)[C@@H](CC(C)C)C(=O)NCC(=O)N1C [DP-221] ([NMeβAla][NMeV]FL[NMeA]TL[NMeL]G[NMeI]FD-Piperidide; lactam N-12) | 31 | – | 75 | – | –
5 | CC[C@H](C)[C@H]1C(=O)N[C@H](C(=O)N2CCCCC2)CC(=O)N(C)CCC(=O)N[C@@H](Cc2ccccc2)C(=O)N(C)[C@@H](CC(C)C)C(=O)N[C@@H](COC(C)(C)C)C(=O)NCC(=O)N2CCC[C@H]2C(=O)N[C@@H]([C@@H](C)O)C(=O)N[C@@H](CC(C)C)C(=O)N(C)[C@@H](C)C(=O)N[C@@H](Cc2ccccc2)C(=O)N1C [DP-222] ([NMeβAla]F[NMeL]S(tBu)GPTL[NMeA]F[NMeI]D-Piperidide; lactam N-12) | 16 | – | 30 | – | –
6 | CC[C@H](C)[C@H]1C(=O)N[C@H](C(=O)N2CCCCC2)CC(=O)N(C)[C@H](C)C(=O)N(C)[C@@H](C(C)C)C(=O)N[C@@H](Cc2ccccc2)C(=O)N[C@@H](CC(C)C)C(=O)N(C)[C@@H](C)C(=O)N[C@@H]([C@@H](C)O)C(=O)N[C@@H](Cc2ccccc2)C(=O)N(C)[C@@H](CC(C)C)C(=O)N[C@@H](CC(C)C)C(=O)NCC(=O)N1C [DP-223] ([dNMeA][NMeV]FL[NMeA]TF[NMeL]LG[NMeI]D-Piperidide; lactam N-12) | 23 | – | 42 | – | –
7 | CC[C@H](C)[C@H]1C(=O)N[C@@H](Cc2ccccc2)C(=O)N(C)[C@@H](CC(C)C)C(=O)N[C@@H](CC(C)C)C(=O)N[C@H](C(=O)N2CCCCC2)CC(=O)N(C)[C@H](C)C(=O)N[C@@H](CC(C)C)C(=O)N(C)[C@@H](C)C(=O)N2CCC[C@H]2C(=O)N[C@@H]([C@@H](C)O)C(=O)N(C)[C@@H](Cc2ccccc2)C(=O)NCC(=O)N1C [DP-224] ([dNMeA]L[NMeA]PT[NMeF]G[NMeI]F[NMeL]LD-Piperidide; lactam N-12) | – | – | – | 18 | 18
8 | CC[C@H](C)[C@H]1C(=O)N(C)[C@@H](CC(C)C)C(=O)N[C@H](C(=O)N2CCCCC2)CC(=O)N(C)CCCC(=O)N(C)[C@@H](Cc2ccccc2)C(=O)N[C@@H](Cc2ccccc2)C(=O)N2CCC[C@H]2C(=O)N[C@@H](CC(C)C)C(=O)N(C)[C@@H](C(C)C)C(=O)N[C@@H]([C@@H](C)O)C(=O)N(C)CC(=O)N[C@@H](C)C(=O)N1C [DP-225] ([NMeGABA][NMeF]FPL[NMeV]T[Sar]A[NMeI][NMeL]D-Piperidide; lactam N-12) | 16 | – | 32 | – | –
9 | CC[C@H](C)[C@@H]1NC(=O)[C@H](Cc2ccccc2)N(C)C(=O)[C@H](Cc2ccccc2)NC(=O)[C@H](C(C)C)N(C)C(=O)[C@H](CC(C)C)N(C)C(=O)[C@H](CC(C)C)NC(=O)[C@@H](C)NC(=O)C[C@@H](C(=O)N2CCCCC2)NC(=O)[C@H]([C@@H](C)O)NC(=O)[C@H](C)NC(=O)[C@H](C)N(C)C1=O [DP-226] ([dA]L[NMeL][NMeV]F[NMeF]I[NMeA]ATD-Piperidide; lactam N-11) | 32 | – | 46 | – | –
10 | CC[C@H](C)[C@H]1C(=O)N[C@@H]([C@@H](C)O)C(=O)N[C@@H](Cc2ccccc2)C(=O)N2CCC[C@H]2C(=O)NCC(=O)N(C)[C@@H](CC(C)C)C(=O)N[C@H](C(=O)N2CCCCC2)CC(=O)N[C@H](C)C(=O)N[C@@H](Cc2ccccc2)C(=O)N(C)[C@@H](CC(C)C)C(=O)N[C@@H](CC(C)C)C(=O)N1C [DP-227] ([dA]F[NMeL]L[NMeI]TFPG[NMeL]D-Piperidide; lactam N-11) | – | – | – | 38 | 141
11 | CC[C@H](C)[C@H]1C(=O)N[C@@H]([C@@H](C)O)C(=O)N[C@@H](CC(C)C)C(=O)N[C@H](C(=O)N2CCCCC2)CC(=O)N[C@H](C)C(=O)N(C)[C@@H](CC(C)C)C(=O)N(C)[C@@H](CC(C)C)C(=O)N(C)[C@@H](Cc2ccccc2)C(=O)N(C)[C@@H](CC(C)C)C(=O)N(C)[C@@H](Cc2ccccc2)C(=O)N[C@@H](C)C(=O)N1C [DP-228] ([dA][NMeL][NMeL][NMeF][NMeL][NMeF]A[NMeI]TLD-Piperidide; lactam N-11) | 5.2 | – | 28 | – | –
12 | CC[C@H](C)[C@H]1C(=O)N[C@@H](Cc2ccccc2)C(=O)N[C@H](C(=O)N2CCCCC2)CC(=O)N[C@H](C)C(=O)N[C@@H](C)C(=O)N(C)[C@@H](CC(C)C)C(=O)N(C)[C@@H](CC(C)C)C(=O)N(C)[C@@H](Cc2ccccc2)C(=O)N[C@@H]([C@@H](C)O)C(=O)N(C)[C@@H](C)C(=O)N(C)[C@@H](C(C)C)C(=O)N1C [DP-229] ([dA]A[NMeL][NMeL][NMeF]T[NMeA][NMeV][NMeI]FD-Piperidide; lactam N-11) | 33 | – | 100 | – | –
13 | CC[C@H](C)[C@@H]1NC(=O)[C@H](Cc2ccccc2)N(C)C(=O)[C@H](C(C)C)N(C)C(=O)[C@H](Cc2ccccc2)NC(=O)[C@H](CC(C)C)N(C)C(=O)[C@H](CC(C)C)NC(=O)[C@@H](C(C)C)NC(=O)C[C@@H](C(=O)N2CCCCC2)NC(=O)[C@H]([C@@H](C)O)NC(=O)[C@H](C)NC(=O)[C@H](C)N(C)C1=O [DP-230] ([dV]L[NMeL]F[NMeV][NMeF]I[NMeA]ATD-Piperidide; lactam N-11) | 44 | – | 31 | – | –
